Columns and labels:
[1] = target: T1, human somatostatin receptor subtype SSTR1 (Homo sapiens, UniProt P30872); assay: Competition binding with 125I-LTT-sst-28, CHO cell membranes, SSTR1; settings: membranes of CHO cells stably transfected with human SSTR1, Ki from IC50 by Cheng-Prusoff
T1 construct: expressed in transfected cells; host or cells: Chinese hamster ovary (CHO) cells, membranes
Method: (§1) The affinity of the compounds of the invention for the five human somatostatin receptor subtypes (SSTR1, SSTR2, SSTR3, SSTR4, and SSTR5) was determined in competition binding assays with (^125I-Tyr)-[Leu^8, DTrp^22]-somatostatin-28 (^125I-LTT-sst-28). The biological material for these experiments consisted of membranes from Chinese hamster ovary (CHO) cells stably transfected with one of the five human somatostatin receptor subtypes. Membranes (3-20 μg of total protein per sample) and trace amount of ^125I-LTT-sst-28 were incubated in 10 mM Hepes, 1 mM EDTA, 5 mM MgCl2, 5 mg/ml of BSA and 30 μg/ml bacitracin, pH 7.6 with six concentrations of the compounds. Each concentration was run in duplicate. Nonspecific binding was defined by 1 μM somatostatin-14 (sst-14) and corresponded to 5-25% of total binding. After 60 min at room temperature, incubations were terminated by rapid vacuum filtration through GF/B glass fiber filter mats (presoaked at 4° C. in 200 ml of 10 mM Hepes, 1 mM EDTA, 5 mM MgCl2, pH 7.6) and three 5 ml washes with ice-cold wash buffer (20 mM TRIS, 1 mM EDTA, 5 mM MgCl2, pH 7.4). The filters were then dried, impregnated with scintillate and their radioactivity was measured by scintillation counting. The analysis of the experiments was carried out by nonlinear least square curve fitting. Affinity constants (Ki) were calculated from the IC50 values according to the Cheng-Prusoff's equation (Cheng and Prusoff, 1973). Experiments were repeated a minimum of three times.

[2] = target: T2, human somatostatin receptor subtype SSTR2 (Homo sapiens, UniProt P30874); assay: Competition binding with 125I-LTT-sst-28, CHO cell membranes, SSTR2; settings: membranes of CHO cells stably transfected with human SSTR2, Ki from IC50 by Cheng-Prusoff
T2 construct: expressed in transfected cells; host or cells: Chinese hamster ovary (CHO) cells, membranes
T2 sequence (P30874 whole entry): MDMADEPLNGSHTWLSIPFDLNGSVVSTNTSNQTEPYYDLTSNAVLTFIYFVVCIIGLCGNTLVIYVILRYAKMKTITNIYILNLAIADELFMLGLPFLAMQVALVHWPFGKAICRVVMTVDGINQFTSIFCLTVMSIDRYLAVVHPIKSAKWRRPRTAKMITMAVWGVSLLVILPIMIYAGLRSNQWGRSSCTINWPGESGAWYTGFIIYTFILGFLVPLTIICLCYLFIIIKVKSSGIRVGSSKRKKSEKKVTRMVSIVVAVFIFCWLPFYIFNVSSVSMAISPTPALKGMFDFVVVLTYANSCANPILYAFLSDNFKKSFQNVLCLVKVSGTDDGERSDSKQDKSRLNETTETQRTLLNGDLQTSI
Method: as §1

[3] = target: T3, human somatostatin receptor subtype SSTR5 (Homo sapiens, UniProt P35346); assay: Competition binding with 125I-LTT-sst-28, CHO cell membranes, SSTR5; settings: membranes of CHO cells stably transfected with human SSTR5, Ki from IC50 by Cheng-Prusoff
T3 construct: expressed in transfected cells; host or cells: Chinese hamster ovary (CHO) cells, membranes
T3 sequence (P35346 whole entry): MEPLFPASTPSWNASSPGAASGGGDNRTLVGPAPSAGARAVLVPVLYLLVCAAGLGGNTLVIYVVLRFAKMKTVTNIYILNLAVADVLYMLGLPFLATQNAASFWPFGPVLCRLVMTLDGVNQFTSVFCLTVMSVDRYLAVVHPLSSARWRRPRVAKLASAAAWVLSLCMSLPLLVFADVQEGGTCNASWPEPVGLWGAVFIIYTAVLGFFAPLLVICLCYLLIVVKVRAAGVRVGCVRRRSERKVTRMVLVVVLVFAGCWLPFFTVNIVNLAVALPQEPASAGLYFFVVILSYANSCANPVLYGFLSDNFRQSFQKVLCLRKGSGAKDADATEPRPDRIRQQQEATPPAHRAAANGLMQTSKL
Method: as §1

NPFF receptor = settings: rat tissue; cited from earlier work
[4] = target: T4, human somatostatin receptor subtype SSTR4 (Homo sapiens, UniProt P31391); assay: Competition binding with 125I-LTT-sst-28, CHO cell membranes, SSTR4; settings: membranes of CHO cells stably transfected with human SSTR4, Ki from IC50 by Cheng-Prusoff
T4 construct: expressed in transfected cells; host or cells: Chinese hamster ovary (CHO) cells, membranes
T4 sequence (P31391 whole entry): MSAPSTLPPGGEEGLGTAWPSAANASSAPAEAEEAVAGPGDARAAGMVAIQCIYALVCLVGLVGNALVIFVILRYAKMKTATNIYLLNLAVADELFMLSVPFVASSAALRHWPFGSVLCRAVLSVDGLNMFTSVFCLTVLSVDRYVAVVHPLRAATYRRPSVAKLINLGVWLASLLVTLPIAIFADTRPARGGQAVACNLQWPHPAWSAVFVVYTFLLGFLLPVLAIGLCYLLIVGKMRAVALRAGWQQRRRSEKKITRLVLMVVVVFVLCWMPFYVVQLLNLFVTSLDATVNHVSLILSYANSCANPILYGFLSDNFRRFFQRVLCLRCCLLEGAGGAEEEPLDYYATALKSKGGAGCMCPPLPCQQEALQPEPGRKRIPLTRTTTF
Method: as §1

[5] = target: T5, human somatostatin receptor subtype SSTR3 (Homo sapiens, UniProt P32745); assay: Competition binding with 125I-LTT-sst-28, CHO cell membranes, SSTR3; settings: membranes of CHO cells stably transfected with human SSTR3, Ki from IC50 by Cheng-Prusoff
T5 construct: expressed in transfected cells; host or cells: Chinese hamster ovary (CHO) cells, membranes
T5 sequence (P32745 whole entry): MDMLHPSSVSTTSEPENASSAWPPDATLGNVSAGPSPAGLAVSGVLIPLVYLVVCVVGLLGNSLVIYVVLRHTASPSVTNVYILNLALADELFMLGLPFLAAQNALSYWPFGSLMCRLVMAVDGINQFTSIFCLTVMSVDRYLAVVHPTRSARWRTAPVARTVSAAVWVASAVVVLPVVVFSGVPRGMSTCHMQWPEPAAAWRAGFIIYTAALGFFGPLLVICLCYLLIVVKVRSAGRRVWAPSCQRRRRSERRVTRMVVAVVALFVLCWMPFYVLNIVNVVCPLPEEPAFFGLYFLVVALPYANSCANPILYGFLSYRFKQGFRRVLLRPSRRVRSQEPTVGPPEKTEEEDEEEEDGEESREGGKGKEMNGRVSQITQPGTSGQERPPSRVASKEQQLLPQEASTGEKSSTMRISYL
Method: as §1

T1 sequence (P30872 whole entry): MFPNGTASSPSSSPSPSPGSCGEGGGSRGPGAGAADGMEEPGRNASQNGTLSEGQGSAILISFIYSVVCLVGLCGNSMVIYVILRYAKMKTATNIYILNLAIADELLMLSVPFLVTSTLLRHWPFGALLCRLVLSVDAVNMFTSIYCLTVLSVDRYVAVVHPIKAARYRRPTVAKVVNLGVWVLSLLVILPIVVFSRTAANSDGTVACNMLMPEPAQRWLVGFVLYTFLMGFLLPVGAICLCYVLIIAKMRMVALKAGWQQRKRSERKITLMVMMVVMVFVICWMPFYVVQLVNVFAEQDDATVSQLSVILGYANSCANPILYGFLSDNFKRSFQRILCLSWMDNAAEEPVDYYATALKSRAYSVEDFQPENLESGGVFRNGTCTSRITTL

Row | Ki [1] [nM] | Ki [2] [nM] | Ki [3] [nM] | Ki [4] [nM] | Ki [5] [nM] | SMILES | affinity for NPFF receptor (NPFF receptor) [nM]
1 | 500 ± 150 | > 1000 | 540 ± 80 | – | – | Cc1ccc(S(=O)(=O)N[C@@H](CCN)C(=O)N[C@@H](Cc2ccccc2)C(N)=O)c2ccccc12 [compound 5, 4-amino-N-((S)-1-carbamoyl-2-phenylethyl)-(S)-2-(N′-(4-methyl-1-naphthalenesulfonyl)amino)butanamide] | –
2 | – | – | – | – | – | CN(C)c1cccc2c(S(=O)(=O)N[C@@H](CCCN=C(N)N)C(=O)N[C@@H](Cc3ccccc3)C(N)=O)cccc12 [Dansyl-RFamide] | 73
3 | 260 ± 20 | > 1000 | > 1000 | 6.5 ± 1.7 | > 1000 | Cc1ccc(S(=O)(=O)N[C@@H](CCCN)C(=O)N[C@@H](Cc2ccccc2)C(N)=O)c2ccccc12 [compound 3, 5-amino-N-((S)-1-carbamoyl-2-phenylethyl)-(S)-2-(N′-(4-methyl-1-naphthalenesulfonyl)amino)pentanamide] | –
4 | > 1000 | > 10000 | > 10000 | 5.3 ± 2.1 | > 5000 | Cc1ccc(S(=O)(=O)N[C@@H](CCN)C(=O)N[C@H](C(N)=O)C(c2ccccc2)c2ccccc2)c2ccccc12 [compound 7, 4-amino-N-((S)-1-carbamoyl-2,2-diphenylethyl)-(S)-2-(N′-(4-methyl-1-naphthalenesulfonyl)amino)butanamide] | –
5 | 34 ± 14 | > 10000 | > 5000 | 1.5 ± 0.7 | > 5000 | Cc1ccc(S(=O)(=O)N[C@@H](CCCNC(=N)N)C(=O)N[C@H](C(N)=O)C(c2ccccc2)c2ccccc2)c2ccccc12 [compound 2, N-((S)-1-carbamoyl-2,2-diphenylethyl)-5-guanidino-(S)-2-(N′-(4-methyl-1-naphthalenesulfonyl)amino)pentanamide] | –
6 | 990 ± 80 | > 10000 | – | 2.3 ± 0.4 | – | CCc1ccc(S(=O)(=O)N[C@@H](CCN)C(=O)N[C@@H](Cc2ccccc2)C(N)=O)c2ccccc12 [compound 6, 4-amino-N-((S)-1-carbamoyl-2-phenylethyl)-(S)-2-(N′-(4-ethyl-1-naphthalenesulfonyl)amino)butanamide] | –
7 | 73 ± 19 | > 10000 | > 10000 | 3.6 ± 0.7 | > 10000 | Cc1ccc(S(=O)(=O)N[C@@H](CCCNC(=N)N)C(=O)N[C@@H](Cc2ccccc2)C(N)=O)c2ccccc12 [compound 1, N-((S)-1-carbamoyl-2-phenylethyl)-5-guanidino-(S)-2-(N′-(4-methyl-1-naphthalenesulfonyl)amino)pentanamide] | –
